# Measured values from the NIST ThermoML archive (doi:10.1021/je034265f).
# ± gives the expanded uncertainty stated by the source.
# Test: activity coefficient (dimensionless); of the first substance listed, at infinite dilution; xn = mol fraction of the nth substance listed
# Conditions: Liquid, x1 = 0
activity coefficient (250.01 K),activity coefficient (270.04 K),activity coefficient (290.01 K),activity coefficient (310.01 K),activity coefficient (330 K),activity coefficient (249.99 K),activity coefficient (270 K),activity coefficient (310 K),activity coefficient (290 K),activity coefficient (249.96 K),activity coefficient (249.97 K),activity coefficient (269.99 K),SMILES
–,–,3 ± 0.1,–,3 ± 0.1,3 ± 0.1,3 ± 0.1,3 ± 0.1,–,–,–,–,C=CC [propene] + CCCCO
4.4 ± 0.1,4.4 ± 0.1,4.3 ± 0.1,4.3 ± 0.1,4.1 ± 0.1,–,–,–,–,–,–,–,CC(C)C [2-methylpropane] + CCCCO
3.5 ± 0.1,–,3.4 ± 0.1,–,3.2 ± 0.1,–,3.4 ± 0.1,3.3 ± 0.1,–,–,–,–,C=CCC [1-butene] + CCCCO
3.6 ± 0.1,–,3.6 ± 0.1,–,3.6 ± 0.1,–,3.6 ± 0.1,3.6 ± 0.1,–,–,–,–,CCC [propane] + CCCCO
–,–,–,–,3.6 ± 0.1,–,4.1 ± 0.1,3.9 ± 0.1,4 ± 0.1,4.2 ± 0.1,–,–,CCCC [butane] + CCC(C)O
–,–,–,–,3.3 ± 0.1,–,–,3.5 ± 0.1,3.5 ± 0.1,–,3.6 ± 0.1,3.5 ± 0.1,CCC [propane] + CCC(C)O
–,–,–,–,2.8 ± 0.1,–,–,3 ± 0.1,3.1 ± 0.1,–,3.1 ± 0.1,3.1 ± 0.1,C=CC [propene] + CCC(C)O
3.4 ± 0.1,3.4 ± 0.1,3.4 ± 0.1,3.3 ± 0.1,3.2 ± 0.1,–,–,–,–,–,–,–,C=C(C)C [2-methylpropene] + CCCCO
–,–,–,–,3.1 ± 0.1,–,–,3.3 ± 0.1,3.5 ± 0.1,–,3.7 ± 0.1,3.6 ± 0.1,C=CCC [1-butene] + CCC(C)O
–,–,–,–,3 ± 0.1,3.7 ± 0.1,3.5 ± 0.1,3.2 ± 0.1,3.4 ± 0.1,–,–,–,C=C(C)C [2-methylpropene] + CCC(C)O
–,–,–,–,3.8 ± 0.1,–,4.3 ± 0.1,4.1 ± 0.1,4.2 ± 0.1,–,4.4 ± 0.1,–,CC(C)C [2-methylpropane] + CCC(C)O
4.1 ± 0.1,4.1 ± 0.1,4.1 ± 0.1,4 ± 0.1,3.9 ± 0.1,–,–,–,–,–,–,–,CCCC [butane] + CCCCO
–,–,–,–,3.1 ± 0.1,–,–,3.3 ± 0.1,3.5 ± 0.1,–,3.7 ± 0.1,3.6 ± 0.1,C/C=C/C [(E)-2-butene] + CCC(C)O
3.4 ± 0.1,–,3.4 ± 0.1,–,3.3 ± 0.1,–,3.4 ± 0.1,3.3 ± 0.1,–,–,–,–,C/C=C/C [(E)-2-butene] + CCCCO

SMILES,activity coefficient (250.01 K),activity coefficient (270.04 K),activity coefficient (290.01 K),activity coefficient (310.01 K),activity coefficient (330 K),activity coefficient (249.99 K),activity coefficient (270 K),activity coefficient (310 K),activity coefficient (290 K),activity coefficient (249.96 K),activity coefficient (249.97 K),activity coefficient (269.99 K)
"C=CC=C [1,3-butadiene] + CCCCO",3 ± 0.1,2.9 ± 0.1,2.9 ± 0.1,2.9 ± 0.1,2.8 ± 0.1,–,–,–,–,–,–,–
"C=CC=C [1,3-butadiene] + CCC(C)O",–,–,–,–,2.8 ± 0.1,3.5 ± 0.1,3.4 ± 0.1,3 ± 0.1,3.2 ± 0.1,–,–,–
